According to patent publication US20210045385A1, “PYRIDAZINONE-SUBSTITUTED KETOXIMES AS HERBICIDES” (FMC Corporation, priority 2018, published 2021):

Key:
Type in all cases: in vivo
[1] = system: Italian ryegrass (Lolium multiflorum); test: Test A preemergence, visual plant response rating
Method in brief: (§1)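 Formulated in a non-phytotoxic solvent mixture including surfactant, each test chemical was sprayed onto the soil surface after sowing, or onto seedlings 2 to 10 cm high. Roughly 10 days later, plants were compared with untreated controls and rated for injury from 0 (no effect) to 100 (complete control).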

[2] = system: barnyardgrass (Echinochloa crus-galli); test: Test A preemergence, visual plant response rating
Method in brief: as §1

[3] = system: foxtail, green (green foxtail, Setaria viridis); test: Test A preemergence, visual plant response rating
Method in brief: as §1

kochia (Kochia scoparia) [4] = test: Test A preemergence, visual plant response rating
Method in brief: as §1

[5] = system: pigweed (Amaranthus retroflexus); test: Test A preemergence, visual plant response rating
Method in brief: as §1

[6] = system: ragweed (common ragweed, Ambrosia elatior); test: Test A preemergence, visual plant response rating
Method in brief: as §1

[7] = system: Italian ryegrass (Lolium multiflorum); test: Test A postemergence, visual plant response rating
Method in brief: as §1

[8] = system: barnyardgrass (Echinochloa crus-galli); test: Test A postemergence, visual plant response rating
Method in brief: as §1

[9] = system: blackgrass (Alopecurus myosuroides); test: Test A postemergence, visual plant response rating
Method in brief: as §1

corn (Zea mays) [10] = test: Test A postemergence, visual plant response rating
Method in brief: as §1

[11] = system: foxtail, green (green foxtail, Setaria viridis); test: Test A postemergence, visual plant response rating
Method in brief: as §1

[12] = system: galium (catchweed bedstraw, Galium aparine); test: Test A postemergence, visual plant response rating
Method in brief: as §1

kochia (Kochia scoparia) [13] = test: Test A postemergence, visual plant response rating
Method in brief: as §1

[14] = system: pigweed (Amaranthus retroflexus); test: Test A postemergence, visual plant response rating
Method in brief: as §1

[15] = system: ragweed (common ragweed, Ambrosia elatior); test: Test A postemergence, visual plant response rating
Method in brief: as §1

[16] = system: wheat (Triticum aestivum); test: Test A postemergence, visual plant response rating; conditions: Postemergence
Method in brief: as §1

[17] = system: barnyardgrass (Echinochloa crus-galli); test: Test B flooded paddy test, visual plant response rating; conditions: 250 g ai/ha, Flood, applied to paddy water, 2-leaf stage, evaluated after 13 to 15 days
Method in brief: (§2)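 Plants were raised to the 2-leaf stage, then pots were flooded to 3 cm above the soil and test compound was applied directly into the paddy water. Water depth was held for the whole test; after 13 to 15 days in a greenhouse, responses were scored visually against controls.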

[18] = system: ducksalad (Heteranhera limosa); test: as above; conditions: 250 g ai/ha, Flood, applied to paddy water, 2-leaf stage, evaluated after 13 to 15 days
Method in brief: as §2

rice (Oryza sativa) = test: as above; conditions: 250 g ai/ha, Flood, applied to paddy water, 2-leaf stage, evaluated after 13 to 15 days
Method in brief: as §2

[19] = system: sedge, umbrella (small-flower umbrella sedge, Cyperus difformis); test: as above; conditions: 250 g ai/ha, Flood, applied to paddy water, 2-leaf stage, evaluated after 13 to 15 days
Method in brief: as §2

[20] = system: Italian ryegrass (Lolium mutiflorum); test: Test C preemergence, visual plant response rating; conditions: 500 g ai/ha
Method in brief: (§3)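 Compounds in a non-phytotoxic solvent with surfactant were applied as a directed soil spray preemergence or to 2–10 cm, one- to two-leaf plants postemergence, in loam–sand soil. After about 10 d in a greenhouse, injury was visually rated against untreated controls on a 0–100 scale (100 = complete control).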

[21] = system: barnyardgrass (Echinochloa crus-galli); test: Test C preemergence, visual plant response rating; conditions: 500 g ai/ha
Method in brief: as §3

[22] = system: foxtail, green (green foxtail, Setaria viridis); test: Test C preemergence, visual plant response rating; conditions: 500 g ai/ha
Method in brief: as §3

kochia (Bassia scoparia) [23] = test: Test C preemergence, visual plant response rating; conditions: 500 g ai/ha
Method in brief: as §3

[24] = system: pigweed (Amaranthus retroflexus); test: Test C preemergence, visual plant response rating; conditions: 500 g ai/ha
Method in brief: as §3

[25] = system: ragweed (common ragweed, Ambrosia artemisiifolia); test: Test C preemergence, visual plant response rating; conditions: 500 g ai/ha
Method in brief: as §3

[26] = system: Italian ryegrass (Lolium mutiflorum); test: Test C postemergence, visual plant response rating; conditions: Test C, postemergence, 500 g ai/ha
Method in brief: as §3

[27] = system: barnyardgrass (Echinochloa crus-galli); test: Test C postemergence, visual plant response rating; conditions: Test C, postemergence, 500 g ai/ha
Method in brief: as §3

[28] = system: blackgrass (Alopecurus myosuroides); test: Test C postemergence, visual plant response rating; conditions: Test C, postemergence, 500 g ai/ha
Method in brief: as §3

corn (Zea mays) [29] = test: Test C postemergence, visual plant response rating; conditions: Test C, postemergence, 500 g ai/ha
Method in brief: as §3

[30] = system: foxtail, green (green foxtail, Setaria viridis); test: Test C postemergence, visual plant response rating; conditions: 500 g ai/ha
Method in brief: as §3

kochia (Bassia scoparia) [31] = test: Test C postemergence, visual plant response rating; conditions: Test C, postemergence, 500 g ai/ha
Method in brief: as §3

[32] = system: pigweed (Amaranthus retroflexus); test: Test C postemergence, visual plant response rating; conditions: Test C, postemergence, 500 g ai/ha
Method in brief: as §3

[33] = system: ragweed (common ragweed, Ambrosia artemisiifolia); test: Test C postemergence, visual plant response rating; conditions: Test C, postemergence, 500 g ai/ha
Method in brief: as §3

[34] = system: wheat (Triticum aestivum); test: Test C postemergence, visual plant response rating; conditions: Test C, postemergence, 500 g ai/ha
Method in brief: as §3

[35] = 125 g ai/ha, preemergence, 0 to 100 scale, 0 no effect, 100 complete control
[36] = 500 g ai/ha Preemergence, approx. 10 days
[37] = 500 g ai/ha, postemergence, 0 is no effect, 100 is complete control
[38] = Postemergence, 125 g ai/ha, 0 to 100 scale (0 no effect, 100 complete control)

Question: Which results are given for `CO/N=C(\c1cccc(S(C)(=O)=O)c1)c1c(O)c(C)nn(C)c1=O` [Compound 148]?
Answer: Ryegrass, Italian plant response rating [1, 35]: 0; Ryegrass, Italian plant response rating (0 to 100 scale) [1, 36]: 0; Barnyardgrass plant response rating [2, 35]: 0; Barnyardgrass plant response rating (0 to 100 scale) [2, 36]: 0; Foxtail, Green plant response rating [3, 35]: 0; Foxtail, Green plant response rating (0 to 100 scale) [3, 36]: 0; Kochia plant response rating (kochia (Kochia scoparia) [4]; [35]): 0; Kochia plant response rating (0 to 100 scale) (kochia (Kochia scoparia) [4]; [36]): 0; Pigweed plant response rating [5, 35]: 0; Pigweed plant response rating (0 to 100 scale) [5, 36]: 0; Ragweed plant response rating [6, 35]: 0; Ragweed plant response rating (0 to 100 scale) [6, 36]: 0; Ryegrass, Italian plant response rating (0 to 100 scale) [7, 37]: 0; Ryegrass, Italian plant response rating (0 to 100 scale) ([7]; Postemergence, rate not given, approx. 10 days): 0; Barnyardgrass plant response rating (0 to 100 scale) [8, 37]: 0; Barnyardgrass plant response rating [8, 38]: 0; Blackgrass plant response rating (0 to 100 scale) [9, 37]: 0; Blackgrass plant response rating [9, 38]: 0; Corn plant response rating (0 to 100 scale) (corn (Zea mays) [10]; [37]): 0; Corn plant response rating (corn (Zea mays) [10]; [38]): 0; Foxtail, Green plant response rating (0 to 100 scale) [11, 37]: 0; Foxtail, Green plant response rating [11, 38]: 0; Galium plant response rating (0 to 100 scale) [12, 37]: 0; Galium plant response rating [12, 38]: 0; Kochia plant response rating (0 to 100 scale) (kochia (Kochia scoparia) [13]; [37]): 0; Kochia plant response rating (kochia (Kochia scoparia) [13]; [38]): 0; Pigweed plant response rating (0 to 100 scale) [14, 37]: 0; Pigweed plant response rating [14, 38]: 0; Ragweed plant response rating (0 to 100 scale) [15, 37]: 0; Ragweed plant response rating [15, 38]: 0; Wheat plant response rating ([16]; 500 g ai/ha, 0 to 100 scale (0 no effect, 100 complete control)): 0; Wheat plant response rating (0 to 100 scale) ([16]; approx. 10 days): 0; Plant response rating, Barnyardgrass (0 to 100 scale, 0 is no effect, 100 is complete control) [17]: 0; Plant response rating, Ducksalad (0 to 100 scale, 0 is no effect, 100 is complete control) [18]: 0; Plant response rating, Rice (0 to 100 scale, 0 is no effect, 100 is complete control) (rice (Oryza sativa)): 0; Plant response rating, Sedge, Umbrella (0 to 100 scale, 0 is no effect, 100 is complete control) [19]: 0

Question: With `Cc1nn(C)c(=O)c(/C(=N/OCc2ccccc2)c2cccc(Cl)c2)c1O` [Compound 150] as the compound, how does the “Ryegrass, Italian plant response rating (0 to 100 scale)” value [20] read?
Answer: 0

Question: What about the “Barnyardgrass plant response rating (0 to 100 scale)” value [21] of the same compound?
Answer: 0

Question: And the “Foxtail, Green plant response rating (0 to 100 scale)” value [22]?
Answer: 0

Question: And the “Kochia plant response rating (0 to 100 scale)” value (kochia (Bassia scoparia) [23])?
Answer: 0

Question: What about the “Pigweed plant response rating (0 to 100 scale)” value [24] of the same compound?
Answer: 0

Question: What about the “Ragweed plant response rating (0 to 100 scale)” value [25] of the same compound?
Answer: 80

Question: What about the “Ryegrass, Italian plant response rating (0 to 100 scale)” value [26] of the same compound?
Answer: 10

Question: What about the “Barnyardgrass plant response rating (0 to 100 scale)” value [27] of the same compound?
Answer: 0

Question: And the “Blackgrass plant response rating (0 to 100 scale)” value [28]?
Answer: 0

Question: And the “Corn plant response rating (0 to 100 scale)” value (corn (Zea mays) [29])?
Answer: 0

Question: And the “Foxtail, Green plant response rating (0 to 100 scale)” value [30]?
Answer: 0

Question: And the “Kochia plant response rating (0 to 100 scale)” value (kochia (Bassia scoparia) [31])?
Answer: 0

Question: And the “Pigweed plant response rating (0 to 100 scale)” value [32]?
Answer: 0

Question: What about the “Ragweed plant response rating (0 to 100 scale)” value [33] of the same compound?
Answer: 20

Question: What about the “Wheat plant response rating (0 to 100 scale)” value [34] of the same compound?
Answer: 0
